For orientation: inhibition means the relative decrease from the control value, in per cent.

From patent US4563527A, “Amidine compounds” (Torii & Co., Ltd., priority 1984, dated 1986) come the findings set out here.

Assay [1] addresses T1, C1s (Homo sapiens, UniProt P09871).
T1 sequence (P09871 438-688 limits assumed): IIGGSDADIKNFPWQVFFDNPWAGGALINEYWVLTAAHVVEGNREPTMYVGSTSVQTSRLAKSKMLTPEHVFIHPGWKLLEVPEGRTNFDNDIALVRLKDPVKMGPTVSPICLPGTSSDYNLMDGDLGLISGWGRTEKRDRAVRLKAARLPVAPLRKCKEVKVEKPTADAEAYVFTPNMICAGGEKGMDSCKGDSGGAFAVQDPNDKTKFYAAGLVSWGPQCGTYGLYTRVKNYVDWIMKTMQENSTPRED
T1 sequence (P09871 16-437 partner limits assumed): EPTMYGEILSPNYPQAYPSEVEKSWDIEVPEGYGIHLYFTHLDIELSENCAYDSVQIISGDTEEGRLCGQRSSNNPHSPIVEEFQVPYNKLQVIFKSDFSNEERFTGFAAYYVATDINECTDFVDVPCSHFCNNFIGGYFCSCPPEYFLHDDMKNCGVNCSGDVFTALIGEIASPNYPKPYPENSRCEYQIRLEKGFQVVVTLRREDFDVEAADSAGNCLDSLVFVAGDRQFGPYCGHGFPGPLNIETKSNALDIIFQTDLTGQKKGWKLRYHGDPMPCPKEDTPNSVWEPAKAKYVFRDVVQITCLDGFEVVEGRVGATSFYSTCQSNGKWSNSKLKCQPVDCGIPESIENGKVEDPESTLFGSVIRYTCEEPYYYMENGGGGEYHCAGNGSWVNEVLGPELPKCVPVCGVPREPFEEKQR
Briefly: Anti-C1s activity (hydrolysis of ATEE). Format: biochemical. Particulars: molar concentration inhibiting 50% of ATEE hydrolysis; read-out: ID50 C1s (Anti-C1 activity). As for the experimental part: The anti-C1 esterase (C1r, C1s) activity was determined according to the method of Okamura et al. [K. Okamura, M. Muramatsu and B. Fujii, Biochem. Biophys. Acta, 295, 252-257 (1973)]. The inhibition of complement mediated hemolysis was determined according to the method of Baker et al. [B. R. Baker and E. H. Erickson, J. Med. Chem. 12, 408-414 (1969)]. The figures in Table 2 have the following meanings:
C1s: Molar concentration of the test compound which inhibits 50% of the ability of C1s to hydrolyse ATEE (acetyltyrosin ethyl ester) (ID50).

Assay [2] has as its system complement. As to the kind of experiment: Inhibition of complement mediated hemolysis. Format: cell-based. As for the experimental part: The complement mediated hemolysis is widely used as a means to determine the titration of complement. The principle of this method is based on the fact that hemolysis is caused by the activation of complement, when the latter is added to a complex (immune complex) of erythrocytes and the antibody thereof. The degree of hemolysis varies in proportion to the amount of complement added. Therefore, when a known amount of complement admixed with a C1 esterase inhibitor is used, the hemolysis must be suppressed in proportion to the inhibitory activity.
The anti-C1 esterase (C1r, C1s) activity was determined according to the method of Okamura et al. [K. Okamura, M. Muramatsu and B. Fujii, Biochem. Biophys. […] The figures in Table 2 have the following meanings: […]

The target in assay [3] is T2, Trypsin (Bos taurus, UniProt P00760).
T2 sequence (P00760 24-246): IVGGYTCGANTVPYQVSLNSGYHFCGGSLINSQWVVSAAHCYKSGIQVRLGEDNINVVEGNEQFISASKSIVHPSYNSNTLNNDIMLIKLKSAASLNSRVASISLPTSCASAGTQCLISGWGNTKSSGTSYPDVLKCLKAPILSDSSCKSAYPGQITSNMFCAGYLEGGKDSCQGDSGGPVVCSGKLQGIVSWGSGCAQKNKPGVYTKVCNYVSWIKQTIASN
As to the kind of experiment: Anti-trypsin activity (hydrolysis of TAME). The format is biochemical. To be noted: molar concentration inhibiting 50% of TAME hydrolysis; read-out: ID50 trypsin. As for the experimental part: (§1) The anti-trypsin, anti-plasmin, anti-kallikrein and anti-thrombin activities were determined according to the method of Muramatsu et al. [M. Muramatus, T. Onishi, S. Makino, Y. Hayashi and S. Fujii, J. of Biochem., 58, 214 (1965)]. The data summarized in Table 1 are expressed in terms of molar concentration (ID50) of the test compound which inhibits 50% of the activity of each enzyme to hydrolyze TAME (tosylalginine methyl ester). The compound No. corresponds to the compound number shown in Examples.

Assay [4] has as its target T3, C1r (Homo sapiens, UniProt P00736).
T3 sequence (P00736 464-705 limits assumed): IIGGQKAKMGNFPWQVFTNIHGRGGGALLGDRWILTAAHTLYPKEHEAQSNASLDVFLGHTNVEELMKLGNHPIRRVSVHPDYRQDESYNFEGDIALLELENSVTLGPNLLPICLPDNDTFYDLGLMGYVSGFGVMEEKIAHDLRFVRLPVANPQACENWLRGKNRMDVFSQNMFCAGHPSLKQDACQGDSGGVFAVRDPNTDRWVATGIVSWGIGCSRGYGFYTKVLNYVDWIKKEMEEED
T3 sequence (P00736 18-463 partner limits assumed): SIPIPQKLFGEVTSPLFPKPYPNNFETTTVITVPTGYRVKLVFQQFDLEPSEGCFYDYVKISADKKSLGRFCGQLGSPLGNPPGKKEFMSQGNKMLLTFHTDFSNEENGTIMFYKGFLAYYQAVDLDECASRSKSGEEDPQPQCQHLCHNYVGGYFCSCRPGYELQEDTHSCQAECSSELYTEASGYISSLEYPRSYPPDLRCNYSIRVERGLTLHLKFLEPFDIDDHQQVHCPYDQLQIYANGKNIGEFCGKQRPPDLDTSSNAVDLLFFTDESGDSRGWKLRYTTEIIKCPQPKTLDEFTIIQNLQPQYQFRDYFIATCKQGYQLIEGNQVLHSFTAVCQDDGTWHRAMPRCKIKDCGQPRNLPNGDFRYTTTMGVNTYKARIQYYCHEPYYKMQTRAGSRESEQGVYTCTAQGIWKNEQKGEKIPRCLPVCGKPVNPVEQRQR
As to the kind of experiment: biochemical. To be noted: molar concentration inhibiting 50% of AAME hydrolysis; read-out: ID50 C1r (Anti-C1 activity).

Assay [5] has as its target Thrombin (Homo sapiens, UniProt P00734). Briefly: biochemical. To be noted: molar concentration inhibiting 50% of TAME hydrolysis; read-out: ID50 thrombin.
The target in assay [6] is Plasmin (Homo sapiens, UniProt P00747). As to the kind of experiment: Anti-plasmin activity (hydrolysis of TAME). Format: biochemical. Particulars: for IC50: molar concentration inhibiting 50% of TAME hydrolysis, read-out: ID50 plasmin. As for the experimental part:
The anti-trypsin, anti-plasmin, anti-kallikrein and anti-thrombin activities were determined according to the method of Muramatsu et al. [M. Muramatus, T. Onishi, S. Makino, Y. Hayashi and S. Fujii, J. of Biochem., 58, 214 (1965)]. […] The compound No. corresponds to the compound number shown in Examples.

The subject of assay [7] is Kallikrein. As to the kind of experiment: Anti-kallikrein activity (hydrolysis of TAME). Format: biochemical. Particulars: for IC50: molar concentration inhibiting 50% of TAME hydrolysis, read-out: ID50 kallikrein. As for the experimental part: as §1

Plasmin, sequence (P00747 581-810 limits assumed, species assumed): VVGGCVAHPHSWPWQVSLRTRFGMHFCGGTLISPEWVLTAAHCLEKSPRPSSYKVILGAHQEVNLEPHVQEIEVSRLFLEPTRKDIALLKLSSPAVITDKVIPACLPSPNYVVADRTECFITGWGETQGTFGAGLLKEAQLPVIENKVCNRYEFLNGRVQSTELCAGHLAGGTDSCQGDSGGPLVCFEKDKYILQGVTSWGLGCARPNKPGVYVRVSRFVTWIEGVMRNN
Plasmin, sequence (P00747 97-580 partner limits assumed, species assumed): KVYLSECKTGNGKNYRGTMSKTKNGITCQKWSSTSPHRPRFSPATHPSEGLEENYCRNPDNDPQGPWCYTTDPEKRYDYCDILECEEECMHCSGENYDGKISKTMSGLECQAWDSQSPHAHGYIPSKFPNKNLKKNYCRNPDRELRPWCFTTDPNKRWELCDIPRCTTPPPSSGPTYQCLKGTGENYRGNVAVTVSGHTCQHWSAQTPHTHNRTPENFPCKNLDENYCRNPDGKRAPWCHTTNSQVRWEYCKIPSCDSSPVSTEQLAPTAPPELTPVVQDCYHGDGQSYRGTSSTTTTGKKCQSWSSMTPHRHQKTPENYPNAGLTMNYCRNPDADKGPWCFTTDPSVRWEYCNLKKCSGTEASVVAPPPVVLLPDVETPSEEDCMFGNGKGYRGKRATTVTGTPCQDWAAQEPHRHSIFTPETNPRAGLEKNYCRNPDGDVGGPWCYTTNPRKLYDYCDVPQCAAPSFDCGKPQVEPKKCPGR

For the compound `CN=C(NC)NCc1ccc(C(=O)Oc2ccc3cc(C(=N)N)ccc3c2)o1` [Compound No. 2, 6-amidino-2-naphthyl 5-(2,3-dimethyl)guanidinomethyl-furan-2-carboxylate], the IC50 in assay [1] was 1000 nM; in assay [3] it was 2000 nM; in assay [4], 1000 nM; in assay [5], 900 nM; in assay [6] it was 800 nM. Moreover, the entries for the “Inhibition of complement mediated hemolysis (%)” value (from here on “Inhibition … (%)”) in assay [2] (1 × 10^-5), in assay [2] (1 × 10^-6) and in assay [2] (1 × 10^-7) were 100%, 100% and 91%, respectively.

In the case of `N=C(N)Nc1ccc(C(=O)Oc2ccc3cc(C(=N)N)ccc3c2)o1` [Compound No. 3], the IC50 stood at 900 nM in assay [7]; 300 nM in assay [1]; 100 nM in assay [3]; 700 nM in assay [4]; 300 nM in assay [5]; 500 nM in assay [6]. In addition, the entries for the “Inhibition … (%)” value in assay [2] (1 × 10^-5), in assay [2] (1 × 10^-6) and in assay [2] (1 × 10^-7) were 100%, 100% and 99%, respectively.

Regarding `CN(C(=N)N)c1ccc(C(=O)Oc2ccc3cc(C(=N)N)ccc3c2)o1` [compound 4], the IC50 was 6000 nM in assay [7]; 300 nM in assay [1]; 4000 nM in assay [3]; 2000 nM in assay [4]; 8000 nM in assay [5]. Moreover, the figures for the “Inhibition … (%)” value in assay [2] (1 × 10^-5), in assay [2] (1 × 10^-6) and in assay [2] (1 × 10^-7) were 100%, 100% and 59%, respectively. Also, the inhibition at 10 µM in assay [6] (figure in parentheses, at 1×10^-5 M, TAME, read-out: percentage inhibition of plasmin) worked out at 42%.

As for `CNC(=N)Nc1ccc(C(=O)Oc2ccc3cc(C(=N)N)ccc3c2)o1` [compound 5], the IC50 in assay [7] came to 500 nM; in assay [1], 300 nM; in assay [3] it was 300 nM; in assay [4], 1000 nM; in assay [5], 200 nM; in assay [6], 500 nM. Besides, the “Inhibition … (%)” value in assay [2] (1 × 10^-5) is 100%; in assay [2] (1 × 10^-6), 100%; in assay [2] (1 × 10^-7), 96%.

For `CNC(=N)NCc1ccc(C(=O)Oc2ccc3cc(C(=N)N)ccc3c2)o1` [compound 6], the IC50 in assay [7] stood at 400 nM; in assay [1], 1000 nM; in assay [3], 4000 nM; in assay [4], 500 nM; in assay [5], 2000 nM; in assay [6] it was 3000 nM. The “Inhibition … (%)” value in assay [2] (1 × 10^-5), in assay [2] (1 × 10^-6) and in assay [2] (1 × 10^-7) was 100% throughout.

For the compound `CCNC(=NC)NCc1ccc(C(=O)Oc2ccc3cc(C(=N)N)ccc3c2)o1` [compound 7], the IC50 in assay [7] came out at 400 nM; in assay [1], 2000 nM; in assay [3], 2000 nM; in assay [4], 1000 nM; in assay [5], 2000 nM; in assay [6], 700 nM. In addition, the “Inhibition … (%)” value in assay [2] (1 × 10^-5) was determined as 100%; in assay [2] (1 × 10^-6), 100%; in assay [2] (1 × 10^-7), 98%.

As for `CCN=C(NCC)NCc1ccc(C(=O)Oc2ccc3cc(C(=N)N)ccc3c2)o1` [compound 8], the IC50 in assay [7] was found to be 400 nM; in assay [1], 2000 nM; in assay [3], 2000 nM; in assay [4], 800 nM; in assay [5], 1000 nM; in assay [6], 800 nM. In addition, the “Inhibition … (%)” value in assay [2] (1 × 10^-5) is listed as 100%; in assay [2] (1 × 10^-6), 100%; in assay [2] (1 × 10^-7), 98%.

On to `N=C(N)NCCc1ccc(C(=O)Oc2ccc3cc(C(=N)N)ccc3c2)o1` [compound 9], for which the “percentage inhibition of kallikrein” value in assay [7] (figure in parentheses, at 1×10^-5 M, TAME) was found to be 47%. In addition, the IC50 in assay [1] stood at 3000 nM; in assay [3] it was 900 nM; in assay [4], 400 nM; in assay [5], 1000 nM; in assay [6], 6000 nM. Moreover, the “Inhibition … (%)” value in assay [2] (1 × 10^-5) was found to be 100%; in assay [2] (1 × 10^-6) it was 100%; in assay [2] (1 × 10^-7), 94%.

As to `N=C(N)c1ccc2cc(OC(=O)c3ccc(NC4=NCCN4)o3)ccc2c1` [compound 10], the IC50 in assay [7] is 400 nM; in assay [1], 300 nM; in assay [3], 40 nM; in assay [4] it was 5000 nM; in assay [5], 200 nM; in assay [6], 3000 nM. The “Inhibition … (%)” value in assay [2] (1 × 10^-5) stood at 100%; in assay [2] (1 × 10^-6) it was 100%; in assay [2] (1 × 10^-7) it was 91%.

Take `N=C(N)c1ccc2cc(OC(=O)c3ccc(CNC(=O)CCNC(=O)OCc4ccccc4)o3)ccc2c1` [compound 20]: the “Inhibition … (%)” value in assay [2] (1 × 10^-5) was 100%; in assay [2] (1 × 10^-6) it was 98%; in assay [2] (1 × 10^-7), 43%.

Turning to `N=C(N)c1ccc2cc(OC(=O)c3ccc(CNC(=O)CCN)o3)ccc2c1` [compound 34], the IC50 in assay [7] was 300 nM; in assay [1], 500 nM; in assay [4], 500 nM; in assay [5], 500 nM; in assay [6], 2000 nM. The “Inhibition … (%)” value in assay [2] (1 × 10^-5) turned out to be 100%; in assay [2] (1 × 10^-6) it was 100%; in assay [2] (1 × 10^-7) it was 58%.
